# Laboratory results: US20230295113A1, “NLRP3 MODULATORS” (ZOMAGEN BIOSCIENCES LTD, priority 2022, published 2023)
# Tested on: IL-1b
# Assay: Human Monocyte IL-1b Assay
# Type: cell-based
# Conditions: Homo sapiens, Monocyte, fresh human whole blood; compound 0.5 h, 100 ng/mL LPS 3.5 h at 37° C., 5 mM ATP 45 min; IL-1b in supernatant by ELISA
# Method: Example 46: Human Monocyte IL-1b Assay
# Serially diluted testing compounds were incubated with […] of fresh human whole blood for 0.5 hours. Cells were primed with 100 ng/mL lipopolysaccharide (LPS) for 3.5 hours at 37° C. followed by stimulation with 5 mM ATP for an additional 45 minutes. The concentration of IL-1b concentration in the supernatant was determined with commercially available ELISA kits. Negative controls are wells without stimulation, while positive controls are wells with stimulation but only DMSO without compounds added. After background subtraction, compound treatment wells were then normalized to the positive controls for IC50 calculations.
row,SMILES,IC50
1,"Cc1c(-c2ccc(C(F)(F)F)cc2O)nnc(C(O)C2CCCN(C)C2)c1C (centres unmarked) [Compound 1, 2-(6-(hydroxy(1-methylpiperidin-3-yl)methyl)-4,5-dimethylpyridazin-3-yl)-5-(trifluoromethyl)phenol]",500 to 3000 nM
2,"Cc1c(C(=O)C2CCCN(C)C2)nnc(-c2ccc(C(F)(F)F)cc2O)c1C (centres unmarked) [Compound 2, (6-(2-hydroxy-4-(trifluoromethyl)phenyl)-4,5-dimethylpyridazin-3-yl)(1-methylpiperidin-3-yl)methanone]",500 to 3000 nM
3,"Cc1c(-c2ccc(C(F)(F)F)cc2O)nnc(C(C)(O)C2CCCN(C)C2)c1C (centres unmarked) [Compound 3, 2-(6-(1-hydroxy-1-(1-methylpiperidin-3-yl)ethyl)-4,5-dimethylpyridazin-3-yl)-5-(trifluoromethyl)phenol]",< 500 nM
4,"Cc1c(-c2ccc(C(F)(F)F)cc2O)nnc(C(F)c2cccnc2)c1C (centres unmarked) [Compound 4, 2-(6-(fluoro(pyridin-3-yl)methyl)-4,5-dimethylpyridazin-3-yl)-5-(trifluoromethyl)phenol]",3000 to 10000 nM
5,"Cc1c(CC2CCCN(C)C2)nnc(-c2ccc(C(F)(F)F)cc2O)c1C (centres unmarked) [Compound 5, 2-(4,5-dimethyl-6-((1-methylpiperidin-3-yl)methyl)pyridazin-3-yl)-5-(trifluoromethyl)phenol]",< 500 nM
6,"COC(c1nnc(-c2ccc(C(F)(F)F)cc2O)c(C)c1C)C1CCCN(C)C1 (centres unmarked) [Compound 6, 2-(6-(methoxy(1-methylpiperidin-3-yl)methyl)-4,5-dimethylpyridazin-3-yl)-5-(trifluoromethyl)phenol]",500 to 3000 nM
7,"Cc1cc(O)c(-c2ccc(CC3CCCN(C)C3)nn2)c(F)c1 (centres unmarked) [Compound 7, 3-fluoro-5-methyl-2-(6-((1-methylpiperidin-3-yl)methyl)pyridazin-3-yl)phenol]",< 500 nM
8,"Cc1cc(O)c(-c2ccc(C(O)C3CCCN(C)C3)nn2)c(F)c1 (centres unmarked) [Compound 8, 3-fluoro-2-(6-(hydroxy(1-methylpiperidin-3-yl)methyl)pyridazin-3-yl)-5-methylphenol]",< 500 nM
9,"CN1CCCC(C(O)c2nnc(-c3ccc(C(F)(F)F)cc3O)c3ccccc23)C1 (centres unmarked) [Compound 9, 2-(4-(hydroxy(1-methylpiperidin-3-yl)methyl)phthalazin-1-yl)-5-(trifluoromethyl)phenol]",< 500 nM
10,"Cc1cc(C(O)c2cccnc2)nnc1-c1ccc(C(F)(F)F)cc1O (centres unmarked) [Compound 10, 2-(6-(hydroxy(pyridin-3-yl)methyl)-4-methylpyridazin-3-yl)-5-(trifluoromethyl)phenol]",3000 to 10000 nM
11,"Cc1cc(C(O)C2CCCN(C)C2)nnc1-c1ccc(C(F)(F)F)cc1O (centres unmarked) [Compound 11, 2-(6-(hydroxy(1-methylpiperidin-3-yl)methyl)-4-methylpyridazin-3-yl)-5-(trifluoromethyl)phenol]",< 500 nM
12,"Cc1cc(-c2ccc(C(F)(F)F)cc2O)nnc1C(O)C1CCCN(C)C1 (centres unmarked) [Compound 12, 2-(6-(hydroxy(1-methylpiperidin-3-yl)methyl)-5-methylpyridazin-3-yl)-5-(trifluoromethyl)phenol]",500 to 3000 nM
13,"Cc1cc(C(=O)c2cccnc2)nnc1-c1ccc(C(F)(F)F)cc1O [Compound 13, (6-(2-hydroxy-4-(trifluoromethyl)phenyl)-5-methylpyridazin-3-yl)(pyridin-3-yl)methanone]",500 to 3000 nM
14,"Cc1cc(C(=O)C2CCCN(C)C2)nnc1-c1ccc(C(F)(F)F)cc1O (centres unmarked) [Compound 14, (6-(2-hydroxy-4-(trifluoromethyl)phenyl)-5-methylpyridazin-3-yl)(1-methylpiperidin-3-yl)methanone]",< 500 nM
15,"Cc1cc(C(C)(O)C2CCCN(C)C2)nnc1-c1ccc(C(F)(F)F)cc1O (centres unmarked) [Compound 15, 2-(6-(1-hydroxy-1-(1-methylpiperidin-3-yl)ethyl)-4-methylpyridazin-3-yl)-5-(trifluoromethyl)phenol]",< 500 nM
16,"Cc1cc(C(=NO)C2CCCN(C)C2)nnc1-c1ccc(C(F)(F)F)cc1O (centres unmarked) [Compound 16, (6-(2-hydroxy-4-(trifluoromethyl)phenyl)-5-methylpyridazin-3-yl)(1-methylpiperidin-3-yl)methanone oxime]",< 500 nM
17,"[2H][C@@](O)(c1cc(C)c(-c2ccc(C(F)(F)F)cc2O)nn1)[C@@H]1CCCN(C)C1 [Compound 18, 2-(6-((S)-hydroxy((R)-1-methylpiperidin-3-yl)methyl-d)-4-methylpyridazin-3-yl)-5-(trifluoromethyl)phenol]",< 500 nM
18,"Cc1cc(C)c(-c2ccc(C(O)C3CCCN(C)C3)nn2)c(O)c1 (centres unmarked) [Compound 19, 2-(6-(hydroxy(1-methylpiperidin-3-yl)methyl)pyridazin-3-yl)-3,5-dimethylphenol]",< 500 nM
19,"Cc1cc(C(F)(F)F)cc(O)c1-c1ccc(C(O)C2CCCN(C)C2)nn1 (centres unmarked) [Compound 20, 2-(6-(hydroxy(1-methylpiperidin-3-yl)methyl)pyridazin-3-yl)-3-methyl-5-(trifluoromethyl)phenol]",< 500 nM
20,"Oc1cc(C(F)(F)F)ccc1-c1ccc(CC2(O)CCCNC2)nn1 (centres unmarked) [Compound 21, 3-((6-(2-hydroxy-4-(trifluoromethyl)phenyl)pyridazin-3-yl)methyl)piperidin-3-ol]",3000 to 10000 nM
21,"CC(c1nnc(-c2ccc(C(F)(F)F)cc2O)c2ccccc12)C1CCCNC1 (centres unmarked) [Compound 22, 2-(4-(1-(piperidin-3-yl)ethyl)phthalazin-1-yl)-5-(trifluoromethyl)phenol]",< 500 nM
22,"CN1CCC(=O)C(C(O)c2ccc(-c3ccc(C(F)(F)F)cc3O)nn2)C1 (centres unmarked) [Compound 23, 3-(hydroxy(6-(2-hydroxy-4-(trifluoromethyl)phenyl)pyridazin-3-yl)methyl)-1-methylpiperidin-4-one]",3000 to 10000 nM
23,"COc1cc(C(F)(F)F)ccc1-c1nnc([C@H](O)[C@@H]2CCCN(C)C2)cc1C [Compound 24, (R)-(6-(2-methoxy-4-(trifluoromethyl)phenyl)-5-methylpyridazin-3-yl)((R)-1-methylpiperidin-3-yl)methanol]",< 500 nM
24,"Cc1cc([C@H](O)[C@@H]2CCCN(C3CC3)C2)nnc1-c1ccc(C(F)(F)F)cc1O [Compound 25, 2-(6-((R)-((R)-1-cyclopropylpiperidin-3-yl)(hydroxy)methyl)-4-methylpyridazin-3-yl)-5-(trifluoromethyl)phenol]",< 500 nM
25,"Cc1cc(C(O)[C@@H]2CCN(C)C2)nnc1-c1ccc(C(F)(F)F)cc1O (stereo partly drawn) [Compound 26, 2-(6-(hydroxy((R)-1-methylpyrrolidin-3-yl)methyl)-4-methylpyridazin-3-yl)-5-(trifluoromethyl)phenol]",< 500 nM
26,"Cc1cc([C@H](O)C2CN3CCC2CC3)nnc1-c1ccc(C(F)(F)F)cc1O (stereo partly drawn) [Compound 28A, 2-(6-((1R)-hydroxy(quinuclidin-3-yl)methyl)-4-methylpyridazin-3-yl)-5-(trifluoromethyl)phenol]",< 500 nM

# More lines, now with the values ahead:
row,IC50,SMILES
1,< 500 nM,"CN1CCC[C@@H]([C@@H](O)c2nnc(-c3ccc(C(F)(F)F)cc3O)c3c2CCC3)C1 (racemic) [Compound 43A, 2-(4-((R)-hydroxy((R)-1-methylpiperidin-3-yl)methyl)-6,7-dihydro-5H-cyclopenta[d]pyridazin-1-yl)-5-(trifluoromethyl)phenol]"
2,< 500 nM,"Cc1cc([C@@H](O)[C@@H]2CCCN(C)C2)nnc1-c1ccc(C(F)(F)F)cc1O [Compound 17A, 2-(6-((S)-hydroxy((R)-1-methylpiperidin-3-yl)methyl)-4-methylpyridazin-3-yl)-5-(trifluoromethyl)phenol]"
3,< 500 nM,"Cc1cc([C@H](O)[C@@H]2CCCN(C)C2)nnc1-c1ccc(C(F)(F)F)cc1O [Compound 17B, 2-(6-((R)-hydroxy((R)-1-methylpiperidin-3-yl)methyl)-4-methylpyridazin-3-yl)-5-(trifluoromethyl)phenol]"
4,< 500 nM,"Cc1cc([C@H](O)[C@H]2CCCN(C)C2)nnc1-c1ccc(C(F)(F)F)cc1O [Compound 17C, 2-(6-((R)-hydroxy((S)-1-methylpiperidin-3-yl)methyl)-4-methylpyridazin-3-yl)-5-(trifluoromethyl)phenol]"
5,500 to 3000 nM,"Cc1cc([C@@H](O)[C@H]2CCCN(C)C2)nnc1-c1ccc(C(F)(F)F)cc1O [Compound 17D, 2-(6-((S)-hydroxy((S)-1-methylpiperidin-3-yl)methyl)-4-methylpyridazin-3-yl)-5-(trifluoromethyl)phenol]"
6,500 to 3000 nM,"Cc1cc([C@H](O)[C@]2(C)CCCN(C)C2)nnc1-c1ccc(C(F)(F)F)cc1O [Compound 27A, 2-(6-((R)-((R)-1,3-dimethylpiperidin-3-yl)(hydroxy)methyl)-4-methylpyridazin-3-yl)-5-(trifluoromethyl)phenol]"
7,3000 to 10000 nM,"Cc1cc([C@@H](O)[C@]2(C)CCCN(C)C2)nnc1-c1ccc(C(F)(F)F)cc1O [Compound 27B, 2-(6-((S)-((R)-1,3-dimethylpiperidin-3-yl)(hydroxy)methyl)-4-methylpyridazin-3-yl)-5-(trifluoromethyl)phenol]"

# Same assay, conditions: fresh human whole blood; compound 0.5 h, 100 ng/mL LPS 3.5 h at 37° C., 5 mM ATP 45 min; IL-1b in supernatant by ELISA
row,IC50,SMILES
1,500 to 3000 nM,"CN1CCC[C@@H]([C@@H](O)c2nnc(-c3ccc(C(F)(F)F)cc3O)c3c2CCC3)C1 (racemic) [Compound 43B, 2-(4-((R/S)-hydroxy((R/S)-1-methylpiperidin-3-yl)methyl)-6,7-dihydro-5H-cyclopenta[d]pyridazin-1-yl)-5-(trifluoromethyl)phenol]"
2,< 500 nM,"CN1CCC[C@@H]([C@@H](O)c2nnc(-c3ccc(C(F)(F)F)cc3O)c3c2CCC3)C1 (racemic) [Compound 44, 2-(4-((R)-hydroxy((R)-1-methylpiperidin-3-yl)methyl)-6,7-dihydro-5H-cyclopenta[d]pyridazin-1-yl)-5-(trifluoromethyl)phenol]"
